From patent US10851112B2, “Anti-HCMV virus compound” (MEDSHINE DISCOVERY INC., priority 2016, dated 2020)
pEC50: −log10 of the molar value.

Tests used:
[1] = Plasma protein binding rate test, equilibrium dialysis, SD rat plasma; assay type: in vitro ADME; conditions: rat plasma (R), equilibrium dialysis 37° C. 4 hours, read-out: plasma protein binding PPB bound (%) (converted)
Protocol: (§1) Plasma Protein Binding Rate Test of the Compound
(§2) The protein binding rate of the test compound in CD-1 mice, SD rats, and human plasma was evaluated by equilibrium dialysis. The test compound was diluted into the plasma of the above three species respectively to prepare a sample with a final concentration of 2 μM. The sample was added to a 96-well equilibrium dialysis device, and dialyzed using a phosphate buffer solution at 37° C. for 4 hours. Warfarin was used as a control compound in the experiment. The concentration of the test compound and warfarin in the plasma and the buffer was determined by LC-MS/MS.

[2] = Plasma protein binding rate test, equilibrium dialysis, CD-1 mouse plasma; assay type: in vitro ADME; conditions: mouse plasma (M), equilibrium dialysis 37° C. 4 hours, read-out: plasma protein binding PPB bound (%) (converted)
Protocol: as §1, §2

[3] = Plasma protein binding rate test, equilibrium dialysis, human plasma; assay type: in vitro ADME; conditions: equilibrium dialysis 37° C. 4 hours, read-out: plasma protein binding PPB bound (%) (converted)
Protocol: as §1, §2

[4] = tested on: US3-6-EGFP-HCMV-AD169 viruses; assay: Fluorescence decay assay against human cytomegalovirus; assay type: cell-based, human cytomegalovirus (HCMV); conditions: Human betaherpesvirus 5, AD169, MRC5, 240 h
Protocol: Fluorescence Decay Assay Against Human Cytomegalovirus
The antiviral activity of the compound against human cytomegalovirus (HCMV) was evaluated by determining the half maximal effective concentration (EC50) of the compound. The HCMV used in this assay was inserted with enhanced green fluorescent protein (EGFP) by gene recombination, so the viral replication in cells could be reflected by the expression level of GFP. The inhibitory activity of the compound on HCMV GFP expression was evaluated by determining the fluorescence intensity in the wells of different concentrations of the compound using a high content cell analysis platform Acumen eX3.
Fluorescence Decay Assay Against HCMV
MRC5 cells were inoculated into a black 96-well cell culture plate at a density of 20,000 cells per well. The plate was incubated overnight in a 37° C., 5% CO2 incubator. US3-6-EGFP-HCMV-AD169 viruses were added to the cell culture well at a certain MOI (0.003-0.1) and the plate was incubated for 3 hours in a 37° C., 5% CO2 incubator. After adsorption of viruses, the medium containing viruses was aspirated and 200 μL of cell culture medium containing different concentrations of the compound (4-fold dilution, 6 test concentrations) was added. The final concentration of DMSO in the medium was 1%. Virus control wells (with DMSO added, but no compound was added) and inhibition control wells (with a high concentration of control compound added) were set. The cell plate was incubated for 10 days in a 37° C., 5% CO2 incubator and the liquid was renewed on the 4th day and 7th day. After 10 days of culture, the fluorescence intensity was determined using a high content cell analysis platform Acumen eX3 (TTP LabTech). The original data was used for calculating the antiviral activity of the compound.
The inhibition % was imported into GraphPad Prism software for data processing to give a corresponding dose-response curve for the compound and the EC50 of the test compound was obtained.

[5] = tested on: HCMV viruses (strain: GFP-AD169); assay: Human cytomegalovirus (HCMV) transplantation model in mouse; assay type: in vivo; conditions: NOD SCID mice, oral 8 mg/kg once a day, 1st to 9th day, plaque detection in gelatin sponge
Protocol: Human Cytomegalovirus (HCMV) Transplantation Model in Mouse
A gelatin sponge containing HCMV was transplanted into mice. After 9 days of continuous administration, the gelatin sponge was collected for plaque detection. The anti-HCMV effect of the compound in the model was evaluated by determining the amount of HCMV in the gelatin sponge.
The animals selected for the experiment were NOD SCID mice (purchased from Shanghai Slac Laboratory Animal Co., Ltd.), 5 weeks, male, 5 animals per group. The day when the mice were transplanted with gelatin sponge was set to be day 0. Human foreskin fibroblasts (HFF, MOI=0.03) were previously infected with HCMV viruses (strain: GFP-AD169). The HMV cells infected with HCMV were added to a 1 cm^2 gelatin sponge for incubation. Animals were anesthetized by intraperitoneal injection of pentobarbital sodium at a dose of 75 mg/kg (10 mL/kg). After the animals entered deep anesthesia, the prepared gelatin sponge was subcutaneously transplanted into the back of the mice. From 1st day to 9th day, the mice were orally administered with the test compound at a dose of 8 mg/kg (10 mL/kg) once a day. At 4 hours after the administration on the 9th day, the gelatin sponge was taken out and digested. The plaque was detected.

| Structure (SMILES) | fraction unbound at 4 h, 2 μM [1] | fraction unbound at 4 h, 2 μM [2] | fraction unbound at 4 h, 2 μM [3] | pEC50 [4] | decrease in HCMV viral load [5] |
| --- | --- | --- | --- | --- | --- |
| COc1cc(N2CCN(C3=Nc4cscc4[C@H](CC(=O)O)N3c3cc(C(F)(F)F)ccc3OC)C[C@H]2C)ccn1 (single isomer, unassigned) [WX-151] | 0.05 | 0.011 | 0.047 | 9.30 | 2.30 log PFU/mL |
| COc1cc(N2CCN(C3=Nc4ccsc4[C@H](CC(=O)O)N3c3cc(C(F)(F)F)ccc3OC)C[C@H]2C)ccn1 (single isomer, unassigned) [WX-141] | 0.061 | 0.017 | 0.06 | 9.70 | 2.38 log PFU/mL |
| COc1cc(N2CCN(C3=Nc4ccsc4[C@H](CC(=O)O)N3c3cc(C(F)(F)F)ccc3OC)CC2)ccn1 (single isomer, unassigned) [WX-109] | 0.108 | 0.055 | 0.097 | 8.40 | – |
| COc1cccc(N2CCN(C3=Nc4ccsc4[C@H](CC(=O)O)N3c3cc(C(F)(F)F)ccc3OC)C[C@H]2C)c1 (single isomer, unassigned) [WX-136] | – | – | – | 9.77 | 2.33 log PFU/mL |
| COc1cccc(N2CCN(C3=Nc4ccsc4[C@H](CC(=O)O)N3c3cc(C(F)(F)F)ccc3OC)CC2)c1 (single isomer, unassigned) [WX-088] | 0.028 | 0.022 | 0.024 | 8.70 | – |
| COc1cc(N2CCN(C3=Nc4c(csc4F)[C@H](CC(=O)O)N3c3cc(C(F)(F)F)ccc3OC)C[C@H]2C)ncn1 (single isomer, unassigned) [WX-149] | 0.017 | 0.002 | 0.024 | 9.17 | – |
| COc1cc(N2CCN(C3=Nc4ccsc4[C@H](CC(=O)O)N3c3cc(C(F)(F)F)ccc3OC)C[C@H]2C)ncn1 (single isomer, unassigned) [WX-143] | 0.066 | 0.015 | 0.069 | 9.05 | – |
| COc1cc(N2[C@H](C)CN(C3=Nc4ccsc4[C@H](CC(=O)O)N3c3cc(C(F)(F)F)ccc3OC)C[C@@H]2C)ccn1 (single isomer, unassigned) [WX-161] | 0.023 | 0.004 | 0.02 | 9.50 | – |
| COc1cc(N2CCN(C3=Nc4c(csc4F)[C@H](CC(=O)O)N3c3cc(C(F)(F)F)ccc3OC)C[C@H]2C)ccn1 (single isomer, unassigned) [WX-147] | 0.014 | 0.002 | 0.018 | 9.77 | – |
| COc1ccnc(N2CCN(C3=Nc4ccsc4[C@H](CC(=O)O)N3c3cc(C(F)(F)F)ccc3OC)C[C@H]2C)c1 (single isomer, unassigned) [WX-139] | 0.041 | 0.014 | 0.06 | 8.52 | – |
| COc1ccnc(N2CCN(C3=Nc4c(csc4F)[C@H](CC(=O)O)N3c3cc(C(F)(F)F)ccc3OC)C[C@H]2C)c1 (single isomer, unassigned) [WX-145] | 0.014 | 0.001 | 0.023 | 8.70 | – |
| COc1cccc(N2CCN(C3=Nc4c(csc4F)[C@H](CC(=O)O)N3c3cc(C(F)(F)F)ccc3OC)C[C@H]2C)c1 (single isomer, unassigned) [WX-132] | 0.017 | 0.011 | 0.022 | 9.82 | – |
| COc1cc(N2CCN(C3=Nc4c(C)csc4[C@H](CC(=O)O)N3c3cc(C(F)(F)F)ccc3OC)C[C@H]2C)ccn1 (single isomer, unassigned) [WX-153] | 0.02 | 0.011 | 0.019 | 9.59 | – |
